The record followed here is patent publication US8008292B2, “Condensed benzamide compounds and inhibitors of vanilloid receptor subtype 1 (VR1) activity” (Japan Tobacco Inc., priority 2004, dated 2011).

In the experiment the target is T1, human VR1 (Homo sapiens, UniProt Q8NER1).
T1 construct: expressed in transfected cells
The experiment in a line: Inhibition of Ca2+ entry in cells caused by proton, in rat glioma (C6BU1) cells stably expressing human VR1 (Fura 2 fluorescence). The format is cell-based. Particulars: inhibition of proton-induced Ca2+ entry. The method, then:
The assay for evaluation of VR1 inhibition by the inventive compounds will be described below. The assay was intended to evaluate in vitro inhibition of Ca^2+ entry in cells caused by proton, one of the VR1 agonists.
Rat glioma (C6BU1) cells stably expressing human VR1 were suspended in 20 mM MES buffer (at pH 6.8, contg. 20 mM 2-morpholinoethanesulfonate (referred to as MES hereinafter), 115 mM NaCl, 5 mM KCl, 1 mM MgCl2 and 14 mM D-glucose) to make a cell density of 1×10^6 cells/mL. A fluorescent dye, Fura 2-AMsolution (DojindoCorporate, Cat. No. 343-05401) was added to the suspension to make a 5 μM concentration thereof. Further, Pluronic F-127 (Wako Pure Chemical Industries, Ltd., Cat. No. P6866) was added to make a 0.1% content thereof. Then, the suspension was incubated at 37° C. for 30 min. The cells were harvested and washed three times with 20 mM MES buffer. The cells were suspended again to make a cell density of 5×10^5 cells/mL. A 500-μL portion of the suspension was taken with a cuvette (MC MEDICAL, INC., Cat. No. SSR3121), to which 10 μL of 20 mM MES buffer containing 250 mM CaCl2 was added to incorporate Ca^2+ into the cells. At the same time, 5 μL of a test compound solution (in a range of 100 μM to 10 nM in DMSO) was also added to provide a final concentration thereof in a range of 1 μM to 0.1 nM. Alternatively, 5 μL of DMSO was added as control to provide a final concentration of 1% DMSO. The suspension was set in an intracellular ionometer (CAF-110; JASCO) 10 min after those additions. The cells were stimulated with protons by addition of 60 μL of 20 mM MES buffer at pH 1.1 to the suspension to set its pH at 5.5. The activity of the test compound was determined as a difference between the minimum of fluorescence intensity before agonist stimulation and its maximum after the stimulation. The value of IC50 was derived from percentage of inhibition by the test compound compared with the control.
In the tables, the symbol “++” indicates an IC50 value less than 100 nM and the symbol “+” indicates an IC50 value of 100 nM to 1,000 nM inclusive.

Each structure is given as a SMILES string.

T1 sequence (Q8NER1 whole entry): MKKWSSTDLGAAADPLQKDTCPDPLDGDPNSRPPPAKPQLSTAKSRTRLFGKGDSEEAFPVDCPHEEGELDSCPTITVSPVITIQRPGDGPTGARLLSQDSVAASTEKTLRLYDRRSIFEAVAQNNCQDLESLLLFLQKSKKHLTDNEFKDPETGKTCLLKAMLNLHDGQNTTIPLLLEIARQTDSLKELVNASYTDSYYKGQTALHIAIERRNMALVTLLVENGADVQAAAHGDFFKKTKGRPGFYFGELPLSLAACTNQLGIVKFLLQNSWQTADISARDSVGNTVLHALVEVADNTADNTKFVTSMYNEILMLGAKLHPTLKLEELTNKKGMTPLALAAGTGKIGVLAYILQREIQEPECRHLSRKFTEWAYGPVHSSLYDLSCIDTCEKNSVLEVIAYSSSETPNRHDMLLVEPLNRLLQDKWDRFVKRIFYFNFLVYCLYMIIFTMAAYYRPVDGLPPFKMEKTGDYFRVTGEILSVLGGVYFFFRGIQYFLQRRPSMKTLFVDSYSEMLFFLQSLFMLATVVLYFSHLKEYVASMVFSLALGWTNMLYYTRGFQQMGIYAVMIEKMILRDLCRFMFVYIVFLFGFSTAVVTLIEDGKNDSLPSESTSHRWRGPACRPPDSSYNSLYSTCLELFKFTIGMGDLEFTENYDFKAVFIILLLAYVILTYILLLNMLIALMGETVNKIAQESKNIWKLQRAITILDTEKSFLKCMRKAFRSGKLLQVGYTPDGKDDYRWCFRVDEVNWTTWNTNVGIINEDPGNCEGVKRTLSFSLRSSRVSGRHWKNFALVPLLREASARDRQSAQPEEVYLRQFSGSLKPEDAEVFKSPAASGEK

`CC(C)(C)c1ccc(NC(=O)c2cccc3c2OCCN3c2ccc(N)cn2)cc1` [Example 1-141] registered an IC50 below 100 nM. Regarding `COCc1ccc(N2CCOc3c(C(=O)Nc4ccc(C(F)(F)F)cc4)cccc32)nc1` [Example 1-143], the IC50 was below 100 nM.

In the case of `CCOc1ccc(N2CCOc3c(C(=O)Nc4ccc(C(F)(F)F)cc4)cccc32)nc1` [Example 1-144], the half-maximal inhibitory concentration (IC50) is below 100 nM. Then `COc1cnc(N2CCOc3c(C(=O)Nc4ccc(C(F)(F)F)cc4)cccc32)c(Cl)c1` [Example 1-145], with below 100 nM. Then `O=C(Nc1ccc(C(F)(F)F)cc1)c1cccc2c1OCCN2c1ccc(O)cn1` [Example 1-146], with below 100 nM.

Turning to `COc1ccc(N2CCOc3c(C(=O)Nc4ccc(C(F)(F)F)cc4)cccc32)nc1` [Example 1-147], the IC50 was below 100 nM. Then `CC(C)(C)c1ccc(NC(=O)c2cccc3c2OCCN3c2cc(Cl)ccn2)cc1` [Example 1-148], with below 100 nM; and `O=C(Nc1ccc(C(F)(F)F)cc1)c1cccc2c1OCCN2c1ccc(F)cn1` [Example 1-149], with below 100 nM. Then `O=C(Nc1ccc(C(F)(F)F)cc1)c1cccc2c1OCCN2c1ncc(F)cc1F` [Example 1-150], with below 100 nM. Then `COc1cccnc1N1CCOc2c(C(=O)Nc3ccc(C(C)(C)C)cc3)cccc21` [Example 1-151], with below 100 nM. `Cc1ccc(N2CCOc3c(C(=O)NN4CCC(C(C)(C)C)CC4)cccc32)nc1` [Example 1-152] registered an IC50 of 100 to 1000 nM.

`O=C(Nc1ccc(C(F)(F)F)cc1)c1cccc2c1OCCN2c1ccc(OCCO)cn1` [Example 1-153] came in with a 50% inhibitory concentration (IC50) of 100 to 1000 nM. `O=C(Nc1ccc(C(F)(F)F)cc1)c1cccc2c1OCCN2c1ncc(CCO)cc1Cl` [Example 1-154] yielded an IC50 below 100 nM. The compound `Cc1ccc(N2CCOc3c(C(=O)Nc4ccc(OCC(C)(C)O)cc4)cccc32)nc1` [Example 1-155] registered an IC50 below 100 nM. In the case of `Cc1ccc(N2CCOc3c(C(=O)Nc4ccc(N5CCCCC5)c(F)c4)cccc32)nc1` [Example 1-156], the IC50 is below 100 nM. Regarding `Cc1ccc(N2CCOc3c(C(=O)Nc4ccc(N5CCOCC5)c(F)c4)cccc32)nc1` [Example 1-157], the IC50 is below 100 nM. Then `Cc1ccc(N2CCOc3c(C(=O)Nc4ccc(F)c(F)c4)cccc32)nc1` [Example 1-158], with below 100 nM; and `COc1ccc(NC(=O)c2cccc3c2OCCN3c2ccc(C)cn2)cc1F` [Example 1-159], with below 100 nM; and `CCOc1ccc(NC(=O)c2cccc3c2OCCN3c2ccc(C)cn2)cc1` [Example 1-160], with below 100 nM. Then `Cc1ccc(N2CCOc3c(C(=O)Nc4ccc5c(c4)N(C)CCC5)cccc32)nc1` [Example 1-162], with below 100 nM. Then `Cc1ccc(N2CCOc3c(C(=O)Nc4ccc(N(C)C)c(F)c4)cccc32)nc1` [Example 1-163], with below 100 nM; and `COCCN(c1ccc(NC(=O)c2cccc3c2OCCN3c2ccc(C)cn2)cc1F)C(C)C` [Example 1-164], with below 100 nM; and `CC(=O)OCCN(c1ccc(NC(=O)c2cccc3c2OCCN3c2ccc(C)cn2)cc1F)C(C)C` [Example 1-165], with below 100 nM. `Cc1ccc(N2CCOc3c(C(=O)Nc4ccc(N(CCO)C(C)C)c(F)c4)cccc32)nc1` [Example 1-166] returned an IC50 of 100 to 1000 nM. Then `CCOC(=O)C1CCN(c2ccc(NC(=O)c3cccc4c3OCCN4c3ccc(C)cn3)cc2F)CC1` [Example 1-167], with below 100 nM; and `COC1CCN(c2ccc(NC(=O)c3cccc4c3OCCN4c3ccc(C)cn3)cc2F)CC1` [Example 1-169], with below 100 nM; and `CC(=O)OC1CCN(c2ccc(NC(=O)c3cccc4c3OCCN4c3ccc(C)cn3)cc2F)CC1` [Example 1-170], with 100 to 1000 nM. With `Cc1ccc(N2CCOc3c(C(=O)Nc4ccc(N5CCC(O)CC5)c(F)c4)cccc32)nc1` [Example 1-171], the IC50 fell in the range of 100 to 1000 nM.

In turn, `COc1cc(NC(=O)c2cccc3c2OCCN3c2ccc(C)cn2)ccc1C` [Example 1-172] registered an IC50 below 100 nM. Then `Cc1ccc(N2CCOc3c(C(=O)Nc4ccc(C)c(OCCO)c4)cccc32)nc1` [Example 1-173], with below 100 nM; and `Cc1ccc(N2CCOc3c(C(=O)Nc4ccc(OC5CCN(C(=O)OC(C)(C)C)CC5)c(F)c4)cccc32)nc1` [Example 1-174], with below 100 nM; and `CCOC(=O)CO[C@H]1CC[C@H](NC(=O)c2cccc3c2OCCN3c2ccc(C)cn2)CC1` [Example 1-176], with 100 to 1000 nM.

Compound `Cc1ccc(N2CCOc3c(C(=O)N[C@H]4CC[C@H](COC(C)C)CC4)cccc32)nc1` [Example 1-183] registered an IC50 of 100 to 1000 nM. The compound `Cc1ccc(N2CCOc3c(C(=O)N[C@H]4CC[C@H](COC(C)(C)C)CC4)cccc32)nc1` [Example 1-186] returned an IC50 below 100 nM. In turn, `Cc1ccc(N2CCOc3c(C(=O)N[C@H]4CC[C@H](OCC(C)C)CC4)cccc32)nc1` [Example 1-187] yielded a half-maximal inhibitory concentration (IC50) below 100 nM. Then `Cc1ccc(N2CCOc3c(C(=O)N[C@H]4CC[C@H](COCC(C)C)CC4)cccc32)nc1` [Example 1-189], with below 100 nM; and `Cc1ccc(N2CCOc3c(C(=O)N[C@H]4CC[C@H](OCc5ccccc5)CC4)cccc32)nc1` [Example 1-190], with 100 to 1000 nM. Then `Cc1ccc(N2CCOc3c(C(=O)N[C@H]4CC[C@H](C(C)C)CC4)cccc32)nc1` [Example 1-191], with below 100 nM; and `CCC[C@H]1CC[C@H](NC(=O)c2cccc3c2OCCN3c2ccc(C)cn2)CC1` [Example 1-192], with below 100 nM. Consider `Cc1ccc(N2CCOc3c(C(=O)N[C@H]4CC[C@H](OCC(C)(C)C)CC4)cccc32)nc1` [Example 1-193], for which the IC50 is below 100 nM. Then `COCc1ccc(N2CCOc3c(C(=O)Nc4ccc(C(C)(C)C)cc4)cccc32)nc1` [Example 1-194], with below 100 nM; and `O=C(O)c1cnc(N2CCOc3c(C(=O)Nc4ccc(OC(F)(F)F)c(Cl)c4)cccc32)c(Cl)c1` [Example 1-195], with 100 to 1000 nM; and `O=C(O)c1cnc(N2CCOc3c(C(=O)Nc4ccc(OC(F)(F)F)cc4)cccc32)c(Cl)c1` [Example 1-196], with 100 to 1000 nM. Compound `CNc1ccc(N2CCOc3c(C(=O)Nc4ccc(OC(F)(F)F)cc4)cccc32)nc1` [Example 1-197] showed an IC50 below 100 nM.

The compound `CCOc1ccc(N2CCOc3c(C(=O)Nc4ccc(OC(F)(F)F)cc4)cccc32)nc1` [Example 1-198] gave an IC50 of 100 to 1000 nM. Then `COc1cnc(N2CCOc3c(C(=O)Nc4ccc(OC(F)(F)F)cc4)cccc32)c(Cl)c1` [Example 1-199], with below 100 nM. Then `O=C(Nc1ccc(OC(F)(F)F)cc1)c1cccc2c1OCCN2c1ccc(OCCO)cn1` [Example 1-200], with 100 to 1000 nM; and `O=C(Nc1ccc(OC(F)(F)F)cc1)c1cccc2c1OCCN2c1ccc(O)cn1` [Example 1-201], with 100 to 1000 nM.

`COc1ccc(N2CCOc3c(C(=O)Nc4ccc(OC(F)(F)F)cc4)cccc32)nc1` [Example 1-202] returned an IC50 below 100 nM. In the case of `N#Cc1cccnc1N1CCOc2c(C(=O)Nc3ccc(OC(F)(F)F)cc3)cccc21` [Example 1-203], the 50% inhibitory concentration (IC50) was below 100 nM. Then `O=C(OCc1ccccc1)c1cccnc1N1CCOc2c(C(=O)Nc3ccc(OC(F)(F)F)cc3)cccc21` [Example 1-207], with 100 to 1000 nM; and `O=C(Nc1ccc(OC(F)(F)F)cc1)c1cccc2c1OCCN2c1ncccc1OCc1ccccc1` [Example 1-209], with below 100 nM; and `O=C(Nc1ccc(OC(F)(F)F)cc1)c1cccc2c1OCCN2c1ncccc1O` [Example 1-210], with 100 to 1000 nM. Then `O=C(Nc1ccc(OC(F)(F)F)cc1)c1cccc2c1OCCN2c1ncccc1OCc1ccccn1` [Example 1-216], with 100 to 1000 nM; and `O=C(Nc1ccc(OC(F)(F)F)cc1)c1cccc2c1OCCN2c1ncccc1OCc1cccnc1` [Example 1-217], with 100 to 1000 nM; and `N#Cc1ccc(N2CCOc3c(C(=O)Nc4ccc(OC(F)(F)F)cc4)cccc32)nc1` [Example 1-218], with 100 to 1000 nM.

The compound `COCc1cnc(N2CCOc3c(C(=O)Nc4ccc(OC(F)(F)F)cc4)cccc32)c(Cl)c1` [Example 1-220] had an IC50 below 100 nM. Then `NC(=O)c1cnc(N2CCOc3c(C(=O)Nc4ccc(OC(F)(F)F)cc4)cccc32)c(Cl)c1` [Example 1-227], with below 100 nM; and `CC(=O)NC[C@H]1COc2c(C(=O)Nc3ccc(C(F)(F)F)cc3)cccc2N1c1ncccc1Cl` [Example 1-228], with below 100 nM.

Consider `O=C(Nc1ccc(C(F)(F)F)cc1)c1cccc2c1OC[C@H](C(=O)O)N2c1ncccc1Cl` [Example 1-229], for which the IC50 lay in the range of 100 to 1000 nM.

What is called IC50 is the midpoint of a concentration-inhibition curve.
